Structures can show the parent of a compound that is named as a salt.

For the assay, the target named is T1, Progesterone Receptor (PR) (Homo sapiens, UniProt P06401).
T1 construct: endogenous in cells; host or cells: T47D human breast mammary carcinoma cells
T1 sequence (P06401 1-933): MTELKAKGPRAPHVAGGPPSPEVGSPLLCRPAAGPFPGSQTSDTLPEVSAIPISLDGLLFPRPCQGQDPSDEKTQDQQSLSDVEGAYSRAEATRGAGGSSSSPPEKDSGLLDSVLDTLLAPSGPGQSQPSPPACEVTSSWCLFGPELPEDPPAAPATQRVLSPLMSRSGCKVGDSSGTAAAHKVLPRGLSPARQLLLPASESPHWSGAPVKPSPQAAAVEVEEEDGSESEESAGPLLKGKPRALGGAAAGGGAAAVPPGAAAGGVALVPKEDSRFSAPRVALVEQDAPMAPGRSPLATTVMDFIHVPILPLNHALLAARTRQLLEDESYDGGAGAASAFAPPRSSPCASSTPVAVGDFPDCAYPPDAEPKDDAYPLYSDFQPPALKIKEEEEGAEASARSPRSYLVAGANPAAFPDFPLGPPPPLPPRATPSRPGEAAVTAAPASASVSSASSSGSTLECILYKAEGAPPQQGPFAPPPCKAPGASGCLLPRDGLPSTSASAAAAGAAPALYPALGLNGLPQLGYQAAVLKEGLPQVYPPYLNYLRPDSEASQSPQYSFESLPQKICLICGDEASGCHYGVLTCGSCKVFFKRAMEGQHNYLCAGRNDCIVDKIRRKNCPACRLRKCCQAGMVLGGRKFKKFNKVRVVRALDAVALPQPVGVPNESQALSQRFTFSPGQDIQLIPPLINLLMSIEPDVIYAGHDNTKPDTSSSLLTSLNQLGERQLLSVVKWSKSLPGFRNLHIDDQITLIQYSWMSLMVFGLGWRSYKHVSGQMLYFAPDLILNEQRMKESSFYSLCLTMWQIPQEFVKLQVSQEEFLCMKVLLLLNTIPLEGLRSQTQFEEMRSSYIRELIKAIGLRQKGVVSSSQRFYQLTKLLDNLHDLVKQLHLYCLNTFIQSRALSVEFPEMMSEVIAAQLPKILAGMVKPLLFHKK
The assay can be described thus: In vitro functional assay for progesterone receptor (PR) antagonists: inhibition of progesterone-induced alkaline phosphatase expression in T47D cells. Type of assay: cell-based. The note with it: antagonist format, 5 nM progesterone, Ki calculated from IC50 with the Cheng-Prusoff equation. The source says:
1.0 In vitro Functional Assay for Progesterone Receptor (PR) Antagonists, Agonists and Modulators
The assay for PR antagonism takes advantage of the extensively reported modulation of alkaline phosphatase (AP) expression in human breast T47D mammary carcinoma cells {Beck et al., D. P. (1993). The progesterone antagonist RU486 acquires agonist activity upon stimulation of cAMP signalling pathways. Proc Natl Acad Sci USA 90, 4441-4445; Fensome et al. (2002). New progesterone receptor antagonists: 3,3-disubstituted-5-aryloxindoles. Bioorg Med Chem Lett 12, 3487-3490; Zhang et al., (2002a). 6-Aryl-1,4-dihydro-benzo d1,3oxazin-2-ones: a novel class of potent, selective, and orally active nonsteroidal progesterone receptor antagonists. Journal of Medicinal Chemistry 45, 4379-4382; Zhang et al., (2003). Novel 6-aryl-1,4-dihydrobenzo d oxazine-2-thiones as potent, selective, and orally active nonsteroidal progesterone receptor agonists. Bioorganic & Medicinal Chemistry Letters 13, 1313-1316; Zhang et al., (2002b). Potent nonsteroidal progesterone receptor agonists: synthesis and SAR study of 6-aryl benzoxazines. Bioorganic & Medicinal Chemistry Letters 12, 787-790; Zhang, Z. et al., (2000). In vitro characterization of trimegestone: a new potent and selective progestin. Steroids 65, 637-643}. […] In the absence of progesterone any agonist activity is also observed as an induction of AP activity. By running the assay in two formats (+/−progesterone (P4)), compounds behaving as PR antagonists, agonists, partial agonists or modulators with mixed agonist/antagonist activity can be identified.
Briefly, T47D cells are grown by propagating in DMEM with phenol red+10% FCS+2 mM Glutamine at 37° C./5% CO2. At 70-80% confluence, the media is exchanged for phenol red free DMEM+5% CS-FCS (Assay media). Cells are incubated overnight in assay media then harvested and frozen in assay media containing 10% DMSO at 1.5e7 cells/mL in 2 mL aliquots using a Planer and immediately stored in liquid nitrogen. Vials are removed from liquid nitrogen storage and immediately thawed in a water bath at 37° C. The cell suspension is added dropwise to 20 mL of assay media, then the tube centrifuged at 1000 rpm for 4 minutes, the supernatant is discarded and the pellet re-suspended in 20 mL assay media. T47D cells are then plated at 8750 cells/well in 35 μL assay media in sufficient white solid 384 well TC plates for the assay. For the agonist format assay a further 10 μL of assay media is added to each well. These plates are then cultured for 3-6 hours at 37° C./5% CO2 before compound addition.
Test substances are prepared by in 100% DMSO, half log concentrations from 4 mM in 384 well plates 5 μL/well (referred to here as ‘grandmother plates’). Progesterone is 100 μM made up in ethanol and PBS (i.e. add 1 mL ethanol to progesterone initially to help dissolving) and stored in 0.5-1 mL aliquots at −20° C.
Using a multidrop (Thermolabsystems), 60 μL/well of buffer is added to a 384 well plate—this will be the ‘mother plate’. _Add 45 μL well buffer to grandmother plate using the multidrop (=400 μM 10% DMSO dilution). Mixed and spun to remove air bubbles. • 20 μL is taken from the grandmother plate (400 μM 10% DMSO) and added to the mother plate (=100 μM 2.5% DMSO). Mixed and spun to remove air bubbles Preparation of Max/Min:
Antagonist Min: (Checker Pattern on Plate Map) 1 μM RU-486 (FAC 0.1 μM) • 50 μL of 0.2 mM RU-486 • 10 mL Diluent Addition of Test Substance to Cell Plates • The PlateMate Plus was used to add 5 μL MAX/MIN to cell plates • Then 5 μL test substances are added from the mother plate (after removing max/min PlateMate tips: columns 1 and 24)
Addition of Agonist (5 nM Progesterone FAC) for Antagonist Format Only
25 nM progesterone in assay media is prepared from 100 μM stock (12.5 μL progesterone/50 mL media), from which 10 μL per well is transferred to the assay plate using the PlateMate Plus (already containing cells & compound). […]
`CC(C)n1nc(-c2ccc(C#N)cc2)c(C2CC2)c1C(=O)N[C@H]1CCNC1` [Example 9, 3-(4-Cyanophenyl)-4-cyclopropyl-1-isopropyl-N-[(3S)-pyrrolidin-3-yl]-1H-pyrazole-5-carboxamide hydrochloride]: the Ki – broadly, a measure of affinity in units of concentration, obtained from inhibition or displacement – is 836 nM.
The result for `CC(C)n1nc(-c2ccc(C#N)cc2)c(C2CC2)c1C(=O)NC1CNC1` [Example 10, N-Azetidin-3-yl-3-(4-cyanophenyl)-4-cyclopropyl-1-isopropyl-1H-pyrazole-5-carboxamide] reads 285 nM; that for `CC(C)C(=O)N1CC[C@@H](NC(=O)c2c(C3CC3)c(-c3ccc(C#N)cc3)nn2C(C)C)C1` [Example 11, 3-(4-Cyanophenyl)-4-cyclopropyl-N-[(3R)-1-isobutyrylpyrrolidin-3-yl]-1-isopropyl-1H-pyrazole-5-carboxamide], 18.6 nM; that for `CC(C)n1nc(-c2ccc(C#N)cc2)c(C2CC2)c1C(=O)N[C@@H]1CCN(S(C)(=O)=O)C1` [Example 13, 3-(4-Cyanophenyl)-4-cyclopropyl-1-isopropyl-N-[(3R)-1-(methylsulfonyl)pyrrolin-3-yl]-1H-pyrazole-5-carboxamide], 34.8 nM.
Consider `CC(C)C(=O)N1CC[C@H](NC(=O)c2c(C3CC3)c(-c3ccc(C#N)cc3)nn2C(C)C)C1` [Example 14, 3-(4-Cyanophenyl)-4-cyclopropyl-N-[(3S)-1-isobutyrylpyrrolidin-3-yl]-1-isopropyl-1H-pyrazole-5-carboxamide], for which the Ki was 302 nM.
As for `CCC(=O)N1CC[C@H](NC(=O)c2c(C3CC3)c(-c3ccc(C#N)cc3)nn2C(C)C)C1` [Example 15, 3-(4-Cyanophenyl)-4-cyclopropyl-1-isopropyl-N-[(3S)-1-propionylpyrrolidin-3-yl]-1H-pyrazole-5-carboxamide], the Ki is 280 nM.
As to `CC(C)C(=O)N1CC(NC(=O)c2c(C3CC3)c(-c3ccc(C#N)cc3)nn2C(C)C)C1` [Example 16, 3-(4-Cyanophenyl)-4-cyclopropyl-N-(1-isobutyrylazetidin-3-yl)-1-isopropyl-1H-pyrazole-5-carboxamide], the Ki was 42.8 nM.
The result for `CCC(=O)N1CC(NC(=O)c2c(C3CC3)c(-c3ccc(C#N)cc3)nn2C(C)C)C1` [Example 17, 3-(4-Cyanophenyl)-4-cyclopropyl-1-isopropyl-N-(1-propionylazetidin-3-yl)-1H-pyrazole-5-carboxamide] reads 42.2 nM.
As for `CC(C)n1nc(-c2ccc(C#N)cc2)c(C2CC2)c1C(=O)NC1CN(S(C)(=O)=O)C1` [Example 18, 3-(4-Cyanophenyl)-4-cyclopropyl-1-isopropyl-N-[1-(methylsulfonyl)azetidin-3-yl]-1H-pyrazole-5-carboxamide], the Ki is 38.2 nM.
With `CC(=O)N1CC(NC(=O)c2c(C3CC3)c(-c3ccc(C#N)cc3)nn2C(C)C)C1` [Example 19, N-(1-Acetylazetidin-3-yl)-3-(4-cyanophenyl)-4-cyclopropyl-1-isopropyl-1H-pyrazole-5-carboxamide], the Ki was 51.4 nM.
With `CCCNC(=O)c1c(C2CC2)c(-c2ccc(C#N)cc2)nn1C(C)C` [Example 20, 3-(4-Cyanophenyl)-4-cyclopropyl-1-isopropyl-N-propyl-1H-pyrazole-5-carboxamide] the figure was 3.78 nM; with `COCCCNC(=O)c1c(C2CC2)c(-c2ccc(C#N)cc2)nn1C(C)C` [Example 21, 3-(4-Cyanophenyl)-4-cyclopropyl-1-isopropyl-N-(3-methoxypropyl)-1H-pyrazole-5-carboxamide], 8.27 nM.
With `CC(C)n1nc(-c2ccc(C#N)cc2)c(C2CC2)c1C(=O)NCCC(F)(F)F` [Example 22, 3-(4-Cyanophenyl)-4-cyclopropyl-1-isopropyl-N-(3,3,3-trifluoropropyl)-1H-pyrazole-5-carboxamide] the figure was 6.67 nM; with `CC(C)n1nc(-c2ccc(C#N)cc2)c(C2CC2)c1C(=O)NCc1ccncn1` [Example 23, 3-(4-Cyanophenyl)-4-cyclopropyl-1-isopropyl-N-(pyrimidin-4-ylmethyl)-1H-pyrazole-5-carboxamide], 10.2 nM.
Turning to `CC(C)n1nc(-c2ccc(C#N)cc2)c(C2CC2)c1C(=O)N[C@H]1CCOC1=O` [Example 24, 3-(4-Cyanophenyl)-4-cyclopropyl-1-isopropyl-N-[(3S)-2-oxotetrahydrofuran-3-yl]-1H-pyrazole-5-carboxamide], the Ki was 19.4 nM.
Turning to `CNC(=O)CNC(=O)c1c(C2CC2)c(-c2ccc(C#N)cc2)nn1C(C)C` [Example 25, 3-(4-Cyanophenyl)-4-cyclopropyl-1-isopropyl-N-[2-(methylamino)-2-oxoethyl]-1H-pyrazole-5-carboxamide], the Ki is 24.5 nM.
With `CC(C)n1nc(-c2ccc(C#N)cc2)c(C2CC2)c1C(=O)NCCCN1CCCC1=O` [Example 26, 3-(4-Cyanophenyl)-4-cyclopropyl-1-isopropyl-N-[3-(2-oxopyrrolidin-1-yl)propyl]-1H-pyrazole-5-carboxamide] the figure was 86.1 nM.
The result for `COC(=O)C(C)(C)NC(=O)c1c(C2CC2)c(-c2ccc(C#N)cc2)nn1C(C)C` [Example 27] reads 161 nM; that for `CC(C)n1nc(-c2ccc(C#N)cc2)c(C2CC2)c1C(=O)NCCN` [Example 28, N-(2-Aminoethyl)-3-(4-cyanophenyl)-4-cyclopropyl-1-isopropyl-1H-pyrazole-5-carboxamide], 171 nM.
The result for `CC(C)n1nc(-c2ccc(C#N)cc2)c(C2CC2)c1C(=O)NCC(C)(C)N` [Example 29, N-(2-amino-2-methylpropyl)-3-(4-cyanophenyl)-4-cyclopropyl-1-isopropyl-1H-pyrazole-5-carboxamide] reads 235 nM; that for `CC(C)n1nc(-c2ccc(C#N)cc2)c(C2CC2)c1C(=O)NCc1cnn(C)c1` [Example 30, 3-(4-Cyanophenyl)-4-cyclopropyl-1-isopropyl-N-[(1-methyl-1H-pyrazol-4-yl)methyl]-1H-pyrazole-5-carboxamide], 30.9 nM.

(Values after US8232269B2, “Amide compounds useful in therapy” (Pfizer Inc., priority 2008, dated 2012).)
